Laboratory results published in ChEMBL document CHEMBL1201862, “PubChem BioAssay data set” (2004).
Calls of active or inactive are those of the source.

System: INS1
Assay: INS-1E survival protection against cytokine death – cell-based, luminescence, retest, dose response (AID 449756);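 also: cell death triggered by IL-1 beta plus TNF-alpha plus IFN-gamma mixture; protective hits raise ATP signal compared with cytokine alone wells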
Format: functional
Conditions: Rattus norvegicus
For CCCCCCSc1ccc([C@H]2N[C@@](Cc3ccccc3)(C(=O)OC)[C@H]3C(=O)N(C)C(=O)[C@@H]23)cc1, the AC50 was 14.1 µM (active).

System: H9c2;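 also: confirmatory concentration-response retest of ultra-high-throughput screening hits for modulation of myocardial damage; cell death induced by hydrogen peroxide oxidative stress; compound pretreatment for 60 min then peroxide exposure for 2 h; potency is for protecting the cells against peroxide damage rather than for killing them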
Assay: cells
Format: functional, cell-based
Conditions: Rattus norvegicus, H9c2, Myocardium
For COc1cccc(N2CC(C(=O)NCc3nnc(O)c4ccccc34)CC2=O)c1 (stereo not drawn), the IC50 was > 79 µM (inactive).
In the case of CCCCCCSc1ccc([C@H]2N[C@@](Cc3ccccc3)(C(=O)OC)[C@H]3C(=O)N(C)C(=O)[C@@H]23)cc1, the IC50 is reported as > 79 µM (inactive).
With Cc1cccc(C(=O)N/N=C2\CS(=O)(=O)N(C)c3ccsc32)c1 the IC50 was > 79 µM (inactive).

Molecular target: T1, Polyadenylate-binding protein 1 (Homo sapiens, UniProt P11940)
T1 sequence (P11940 whole entry): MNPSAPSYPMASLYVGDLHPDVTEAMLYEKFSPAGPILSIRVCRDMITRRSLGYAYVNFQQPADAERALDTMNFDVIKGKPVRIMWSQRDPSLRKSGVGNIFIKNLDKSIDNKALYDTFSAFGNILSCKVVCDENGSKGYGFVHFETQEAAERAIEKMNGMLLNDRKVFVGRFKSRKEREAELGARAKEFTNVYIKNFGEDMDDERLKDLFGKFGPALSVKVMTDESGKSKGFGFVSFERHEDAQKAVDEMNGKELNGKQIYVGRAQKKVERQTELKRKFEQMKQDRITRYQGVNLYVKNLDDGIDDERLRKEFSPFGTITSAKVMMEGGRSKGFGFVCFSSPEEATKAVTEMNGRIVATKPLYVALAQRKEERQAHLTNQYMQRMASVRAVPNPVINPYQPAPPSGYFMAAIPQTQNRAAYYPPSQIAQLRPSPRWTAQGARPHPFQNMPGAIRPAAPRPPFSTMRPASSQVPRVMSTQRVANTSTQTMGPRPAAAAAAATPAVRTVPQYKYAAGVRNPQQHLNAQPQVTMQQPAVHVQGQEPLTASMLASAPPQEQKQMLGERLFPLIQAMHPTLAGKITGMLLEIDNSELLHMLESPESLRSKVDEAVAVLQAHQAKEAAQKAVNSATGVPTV
Assay: MLLE binding blockers, Cy5 peptide tracer – biochemical, fluorescence polarization, Cy5-PAM2 peptide, secondary, miRNA deadenylation inhibitor project, dose response (AID 602260)
Format: functional
Conditions: read-out: IC50_Mean
For CCC(C)NC(=O)[C@H]1N2C(=O)c3c(ccc(OC)c3OC)C2SC1(C)C (stereo partly drawn), the IC50 was > 66 µM (inactive).
With COc1ccc(NC(=O)CSc2nnc(CCC(=O)O)c(=O)n2N)cc1 the IC50 was > 66 µM (inactive).
In the case of O=C(NC(=S)NC1CCSC1=O)c1ccc([N+](=O)[O-])cc1 (stereo not drawn), the IC50 is reported as > 66 µM (inactive).
For O=c1[nH]nc(Sc2ccccc2)c(=S)[nH]1, the IC50 was > 66 µM (inactive).
In the case of Oc1nc(S)nc2c1CN(Cc1ccc(F)cc1)CC2, the IC50 is reported as > 66 µM (inactive).
In the case of Cc1cccc(NC(=O)NC(=S)NC(=O)c2ccccc2)c1, the IC50 is reported as > 66 µM (inactive).
In the case of CCN(CC(=O)Nc1ccc(OC)cc1)C(=O)CSCc1c(C)noc1C, the IC50 is reported as > 66 µM (inactive).
For CC(=O)c1cccc(S(=O)(=O)NC2CCSc3ccccc32)c1 (stereo not drawn), the IC50 was > 66 µM (inactive).

System: not listed separately
Assay: reduction of Shn3 3'UTR-driven luciferase in osteoblasts – cell-based, Clone20 osteoblasts, firefly luciferase, cherry-picked, dose response (AID 624132);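 also: firefly luciferase luminescence from reporter carrying the Shn3 3'UTR in osteoblasts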
Format: functional
Conditions: not given
With CC(C)C[C@H]1CN=C(N(C)C)N1CC1CCCCCC1 the AC50 was 5.03 µM (active).
In the case of Cc1cc(C)n2nc(SCC(=O)c3cc(C)n(-c4cc(C)on4)c3C)nc2n1, the AC50 is reported as 2.46 µM (active).

Molecular target: T1, Polyadenylate-binding protein 1
Assay: MLLE domain peptide-binding blockers, IC50 – biochemical, fluorescence polarization, FITC-PAM2 peptide, dose response (AID 602259)
Format: functional
Conditions: read-out: IC50_Mean
For CCC(C)NC(=O)[C@H]1N2C(=O)c3c(ccc(OC)c3OC)C2SC1(C)C (stereo partly drawn), the IC50 was > 66 µM (inactive).
In the case of COc1ccc(NC(=O)CSc2nnc(CCC(=O)O)c(=O)n2N)cc1, the IC50 is reported as > 66 µM (inactive).
For O=C(NC(=S)NC1CCSC1=O)c1ccc([N+](=O)[O-])cc1 (stereo not drawn), the IC50 was > 66 µM (inactive).
For O=c1[nH]nc(Sc2ccccc2)c(=S)[nH]1, the IC50 was > 66 µM (inactive).
For Oc1nc(S)nc2c1CN(Cc1ccc(F)cc1)CC2, the IC50 was > 66 µM (inactive).
For Cc1cccc(NC(=O)NC(=S)NC(=O)c2ccccc2)c1, the IC50 was > 66 µM (inactive).
In the case of CCN(CC(=O)Nc1ccc(OC)cc1)C(=O)CSCc1c(C)noc1C, the IC50 is reported as > 66 µM (inactive).
For CC(=O)c1cccc(S(=O)(=O)NC2CCSc3ccccc32)c1 (stereo not drawn), the IC50 was > 66 µM (inactive).

System: not listed separately
Assay: loss of viability in HepG2 cells – cell-based, CellTiter-Glo, cherry-picked, cytotoxicity control for Shn3 inhibitor project, dose response (AID 624134)
Format: functional
Conditions: not given
In the case of CC(C)C[C@H]1CN=C(N(C)C)N1CC1CCCCCC1, the AC50 is reported as > 70 µM (inactive).
With Cc1cc(C)n2nc(SCC(=O)c3cc(C)n(-c4cc(C)on4)c3C)nc2n1 the AC50 was > 70 µM (inactive).

System: not listed separately
Assay: non-specific 3'UTR reporter inhibition in Clone20-Shn3RL – cell-based, Renilla luciferase, cherry-picked, counter-screen for Shn3 inhibitor project, dose response (AID 624133)
Format: functional
Conditions: not given
In the case of CC(C)C[C@H]1CN=C(N(C)C)N1CC1CCCCCC1, the AC50 is reported as 9.97 µM (active).
With Cc1cc(C)n2nc(SCC(=O)c3cc(C)n(-c4cc(C)on4)c3C)nc2n1 the AC50 was 3.28 µM (active).

System: not listed separately
Assay: blockers of HIV-1 envelope-mediated cell-cell fusion – cherry-pick, dose response (AID 652057)
Format: functional, cell-based
Conditions: not given
With Cc1nc2sccn2c1-c1csc(NCc2ccccc2)n1 the AC50 was 15.4 µM (active).
For CC(C)(C)N1C(=O)[C@H]2[C@@H](c3ccc(Br)cc3)N3C(=O)N(c4ccccc4)C(=O)[C@@]3(C)[C@H]2C1=O, the AC50 was 1.13 µM (active).
In the case of Cc1cc(Cl)ccc1OCCCC(=O)Nc1cc(S(=O)(=O)N2CCOCC2)ccc1N1CCOCC1, the AC50 is reported as 2.05 µM (active).
In the case of CCC1(c2ccccc2)NC(=O)N(CC(=O)Nc2cc(S(=O)(=O)N3CCCCC3)ccc2OC(C)C)C1=O (stereo not drawn), the AC50 is reported as 1.8 µM (active).
In the case of CC1(C)CC2CC(C)(CN2S(=O)(=O)c2cccc(C(=O)OCC(=O)NC(N)=O)c2)C1 (stereo not drawn), the AC50 is reported as 6.32 µM (active).

System: not listed separately
Assay: blockers of HIV-1 ZM109 envelope-driven cell-cell fusion – HeLa effector, CEM target cells, luciferase, cherry-pick, dose response (AID 652058);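 also: luciferase signal from HIV-1 Env mediated cell-cell fusion of effector and target cells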
Format: functional, cell-based
Conditions: not given
For Cc1nc2sccn2c1-c1csc(NCc2ccccc2)n1, the AC50 was 10.1 µM (active).
For CC(C)(C)N1C(=O)[C@H]2[C@@H](c3ccc(Br)cc3)N3C(=O)N(c4ccccc4)C(=O)[C@@]3(C)[C@H]2C1=O, the AC50 was 1.08 µM (active).
With Cc1cc(Cl)ccc1OCCCC(=O)Nc1cc(S(=O)(=O)N2CCOCC2)ccc1N1CCOCC1 the AC50 was 5.3 µM (active).
For CCC1(c2ccccc2)NC(=O)N(CC(=O)Nc2cc(S(=O)(=O)N3CCCCC3)ccc2OC(C)C)C1=O (stereo not drawn), the AC50 was 3.02 µM (active).
With CC1(C)CC2CC(C)(CN2S(=O)(=O)c2cccc(C(=O)OCC(=O)NC(N)=O)c2)C1 (stereo not drawn) the AC50 was 6.73 µM (active).

System: not listed separately
Assay: off-target signal loss in HeLa-CEM21 co-culture – HeLa F-luc CTL cells, cherry-picked, counter-screen for HIV-1 Env fusion inhibitor project, dose response (AID 652040);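 also: potency for signal decrease marking cytotoxic or nonspecific inhibition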
Format: functional, cell-based
Conditions: not given
In the case of Cc1nc2sccn2c1-c1csc(NCc2ccccc2)n1, the AC50 is reported as 24 µM (active).
With CC(C)(C)N1C(=O)[C@H]2[C@@H](c3ccc(Br)cc3)N3C(=O)N(c4ccccc4)C(=O)[C@@]3(C)[C@H]2C1=O the AC50 was 1.18 µM (active).
In the case of Cc1cc(Cl)ccc1OCCCC(=O)Nc1cc(S(=O)(=O)N2CCOCC2)ccc1N1CCOCC1, the AC50 is reported as 4.73 µM (active).
For O=C(NCc1cccnc1)c1cnc2cc3c(cc2c1O)OCCO3, the AC50 was < 0.26 µM (active).
In the case of CCC1(c2ccccc2)NC(=O)N(CC(=O)Nc2cc(S(=O)(=O)N3CCCCC3)ccc2OC(C)C)C1=O (stereo not drawn), the AC50 is reported as 5.57 µM (active).
For CC1(C)CC2CC(C)(CN2S(=O)(=O)c2cccc(C(=O)OCC(=O)NC(N)=O)c2)C1 (stereo not drawn), the AC50 was 6.33 µM (active).

System: not listed separately
Assay: HIV-1 AD8 envelope cell-cell fusion blockers – cherry-pick, dose response (AID 652062);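 also: luciferase signal from cell-cell fusion driven by HIV-1 clade B AD8 Env; potency is for inhibitors of fusion seen as a drop in luminescence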
Format: functional, cell-based
Conditions: not given
For Cc1nc2sccn2c1-c1csc(NCc2ccccc2)n1, the AC50 was 10.7 µM (active).
In the case of CC(C)(C)N1C(=O)[C@H]2[C@@H](c3ccc(Br)cc3)N3C(=O)N(c4ccccc4)C(=O)[C@@]3(C)[C@H]2C1=O, the AC50 is reported as 1.83 µM (active).
With Cc1cc(Cl)ccc1OCCCC(=O)Nc1cc(S(=O)(=O)N2CCOCC2)ccc1N1CCOCC1 the AC50 was 7.34 µM (active).
With O=C(NCc1cccnc1)c1cnc2cc3c(cc2c1O)OCCO3 the AC50 was 1.22 µM (active).
For CCC1(c2ccccc2)NC(=O)N(CC(=O)Nc2cc(S(=O)(=O)N3CCCCC3)ccc2OC(C)C)C1=O (stereo not drawn), the AC50 was 14.7 µM (active).
In the case of CC1(C)CC2CC(C)(CN2S(=O)(=O)c2cccc(C(=O)OCC(=O)NC(N)=O)c2)C1 (stereo not drawn), the AC50 is reported as 13.8 µM (active).
